Data: the supplement of paper PMC10331698
± gives the standard deviation of the averaged measurements.

Assays:
Assay in all cases: level (log10 ratio to DMSO vehicle control); higher = higher biomarker level / cell amount than vehicle control
[1] = compound: C=C(C)C(=O)OCCC(F)(F)C(F)(F)C(F)(F)C(F)(F)C(F)(F)C(F)(F)C(F)(F)C(F)(F)F [8:2 Fluorotelomer methacrylate] (in DMSO)
Description: (§1)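 BioMAP Diversity Plus panel of 12 human primary cell co-culture systems (3C, 4H, LPS, SAg, BT, BF4T, BE3C, CASM3C, HDF3CGF, KF3CT, MyoF, Mphg). Compounds were added 1 h before stimulation and left for 24 h (MyoF 48 h; BT 72 h for soluble read-outs or 6 d for IgG). Biomarkers were read by ELISA, cytotoxicity by SRB, PBMC viability and proliferation by Alamar Blue. Each well value was divided by the mean of 8 DMSO control wells on the same plate and log10 transformed; duplicate blinded samples were tested at 4 concentrations.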

[2] = compound: CN(C(=O)C(F)(F)C(F)(F)C(F)(F)F)[Si](C)(C)C [N-Methyl-N-trimethylsilylheptafluorobutyramide] (in DMSO)
Description: as §1

[3] = compound: C[C@@H]1C[C@H]2[C@@H]3CCC4=CC(=O)C=C[C@]4(C)[C@@]3(F)[C@@H](O)C[C@]2(C)[C@@]1(O)C(=O)COP(=O)(O)O [Dexamethasone sodium phosphate] (in DMSO)
Description: as §1

[4] = compound: NS(=O)(=O)C(F)(F)C(F)(F)C(F)(F)C(F)(F)C(F)(F)C(F)(F)C(F)(F)C(F)(F)F [Perfluorooctanesulfonamide] (in DMSO)
Description: as §1

[5] = compound: O=C(O)C(F)(OC(F)(F)C(F)(OC(F)(F)C(F)(OC(F)(F)C(F)(F)C(F)(F)F)C(F)(F)F)C(F)(F)F)C(F)(F)F [Perfluoro-(2,5,8-trimethyl-3,6,9-trioxadodecanoic)acid] (in DMSO)
Description: as §1

[6] = compound: O=C(O)CCC(F)(C(F)(F)F)C(F)(F)F [4,4-bis(Trifluoromethyl)-4-fluoropropanoic acid] (in DMSO)
Description: as §1

[7] = compound: OCC(F)(F)C(F)(F)C(F)(F)C(F)F [1H,1H,5H-Perfluoropentanol] (in DMSO)
Description: as §1

Test System | level (log10) ([1]; 6700 nM) | level (log10) ([1]; 20000 nM) | level (log10) ([2]; 6700 nM) | level (log10) ([2]; 20000 nM) | level (log10) ([2]; 60000 nM) | level (log10) ([3]; 1500 nM) | level (log10) ([3]; 4400 nM) | level (log10) ([3]; 13000 nM) | level (log10) ([3]; 40000 nM) | level (log10) ([4]; 6700 nM) | level (log10) ([4]; 20000 nM) | level (log10) ([5]; 1100 nM) | level (log10) ([5]; 3300 nM) | level (log10) ([5]; 10000 nM) | level (log10) ([6]; 6700 nM) | level (log10) ([6]; 20000 nM) | level (log10) ([6]; 60000 nM) | level (log10) ([7]; 6700 nM) | level (log10) ([7]; 20000 nM) | level (log10) ([7]; 60000 nM)
SAg:CCL2/MCP-1 | 0.0005 ± 0.025 | 0.003 ± 0.011 | -0.0135 ± 0.0078 | -0.012 ± 0.018 | -0.0005 ± 0.026 | -0.024 ± 0.031 | -0.029 ± 0.013 | -0.089 ± 0.0042 | -0.07 | -0.0125 ± 0.021 | 0.0075 ± 0.015 | -0.0025 ± 0.018 | -0.0055 ± 0.0035 | 0.0195 ± 0.025 | 0 ± 0.033 | -0.0125 ± 0.00071 | -0.0125 ± 0.025 | 0.016 ± 0.0085 | 0.0115 ± 0.035 | -0.014 ± 0.035
BE3C:HLA-DR | -0.004 ± 0.021 | 0.0085 ± 0.033 | -0.009 ± 0.0014 | -0.0105 ± 0.0021 | 0.009 ± 0.033 | 0.0175 ± 0.026 | -0.0205 ± 0.033 | 0.0195 ± 0.011 | 0.035 ± 0.017 | -0.0975 ± 0.013 | -0.136 ± 0.011 | -0.0055 ± 0.005 | -0.0095 ± 0.0021 | 0.0085 ± 0.0078 | -0.011 | -0.0125 ± 0.005 | 0.0065 ± 0.029 | -0.017 ± 0.011 | -0.0095 ± 0.016 | 0.019 ± 0.023
SAg:CD38 | -0.0195 ± 0.00071 | -0.011 ± 0.013 | -0.0015 ± 0.019 | -0.009 ± 0.0014 | 0.0115 ± 0.023 | -0.014 ± 0.018 | -0.027 ± 0.021 | -0.037 ± 0.0028 | -0.0215 ± 0.023 | -0.006 ± 0.0071 | -0.089 ± 0.016 | -0.0115 ± 0.0021 | -0.011 ± 0.021 | -0.005 ± 0.014 | -0.02 ± 0.047 | -0.008 ± 0.013 | -0.0025 ± 0.019 | 0.0465 ± 0.018 | 0.0415 ± 0.022 | 0.0305 ± 0.049
SAg:CXCL9/MIG | 0.001 ± 0.0099 | 0.002 ± 0.0014 | 0.007 ± 0.0057 | -0.009 ± 0.0014 | -0.0135 ± 0.0078 | 0.0095 ± 0.00071 | -0.0065 ± 0.0035 | -0.0125 ± 0.0035 | -0.005 ± 0.0099 | -0.002 ± 0.0042 | -0.0055 ± 0.011 | -0.01 ± 0.017 | 0.008 ± 0.017 | -0.0005 ± 0.016 | 0.0015 ± 0.0064 | 0.008 ± 0.0042 | 0.0035 ± 0.00071 | -0.0105 ± 0.00071 | 0.0005 ± 0.013 | 0.008 ± 0.023
LPS:CD40 | 0.0345 ± 0.0092 | -0.028 ± 0.11 | -0.023 ± 0.027 | -0.0065 ± 0.011 | -0.0325 ± 0.025 | 0.0175 ± 0.054 | -0.035 ± 0.03 | -0.012 ± 0.037 | -0.0635 ± 0.019 | -0.0635 ± 0.018 | -0.115 ± 0.0042 | 0.04 ± 0.1 | 0.0475 ± 0.015 | 0.007 ± 0.055 | 0.005 ± 0.027 | -0.0115 ± 0.021 | -0.0385 ± 0.0035 | -0.017 ± 0.016 | -0.0085 ± 0.005 | 0.0145 ± 0.015
SAg:CD40 | -0.0265 ± 0.035 | -0.0335 ± 0.0078 | -0.0185 ± 0.059 | -0.009 ± 0.0042 | -0.0075 ± 0.00071 | -0.044 ± 0.0085 | -0.072 ± 0.05 | -0.0535 ± 0.03 | -0.074 ± 0.081 | -0.028 ± 0.0042 | -0.1085 ± 0.00071 | -0.009 ± 0.0071 | -0.0015 ± 0.0021 | -0.0005 ± 0.019 | -0.0495 ± 0.073 | -0.0245 ± 0.077 | -0.055 ± 0.089 | -0.055 ± 0.033 | -0.018 ± 0.031 | -0.0165 ± 0.073
LPS:sTNF-alpha | 0.0165 ± 0.0064 | -0.007 ± 0.017 | -0.004 ± 0.0042 | -0.002 ± 0.011 | -0.0065 ± 0.015 | -0.083 ± 0.047 | -0.0655 ± 0.032 | -0.19 ± 0.038 | -0.262 ± 0.032 | 0.007 ± 0.0042 | -0.0245 ± 0.00071 | 0.0035 ± 0.022 | -0.001 ± 0.016 | 0.001 ± 0.02 | -0.046 ± 0.045 | -0.013 ± 0.05 | -0.003 ± 0.018 | 0.006 ± 0.041 | 0.0065 ± 0.044 | 0.01 ± 0.028
BT:B cell Proliferation | -0.025 ± 0.018 | 0.037 ± 0.033 | 0.01 ± 0.014 | -0.01 ± 0.02 | -0.007 ± 0.0014 | -0.0145 ± 0.011 | 0.005 ± 0.013 | -0.0245 ± 0.019 | -0.0025 ± 0.015 | 0.0205 ± 0.0064 | 0.024 ± 0.028 | -0.029 ± 0.027 | -0.0035 ± 0.013 | -0.0145 ± 0.011 | 0.0195 ± 0.0035 | -0.0115 ± 0.035 | 0.0125 ± 0.0035 | -0.016 ± 0.0042 | 0.0015 ± 0.046 | 0.0065 ± 0.057
4H:SRB | -0.0205 ± 0.028 | -0.0105 ± 0.042 | 0.005 ± 0.0085 | 0.0055 ± 0.022 | -0.003 ± 0.011 | 0.001 ± 0.011 | -0.0135 ± 0.005 | 0.005 ± 0.014 | 0.007 ± 0.038 | -0.005 ± 0.011 | -0.0815 ± 0.0021 | 0.0045 ± 0.0064 | 0 ± 0.0028 | 0.009 ± 0.0057 | -0.008 | -0.0125 ± 0.011 | 0.014 ± 0.02 | -0.003 ± 0.0014 | 0.011 ± 0.0042 | 0.0065 ± 0.005
BF4T:CD54/ICAM-1 | -0.023 ± 0.0099 | 0.001 ± 0.0099 | -0.0145 ± 0.0064 | -0.0045 ± 0.023 | -0.0115 ± 0.00071 | -0.003 ± 0.021 | -0.0105 ± 0.011 | -0.0205 ± 0.0021 | -0.0005 ± 0.015 | -0.029 ± 0.0014 | -0.06 ± 0.045 | 0.0025 ± 0.018 | 0.004 ± 0.0042 | 0.004 ± 0.0085 | 0.0175 ± 0.013 | 0.006 ± 0.0071 | 0.002 ± 0.013 | -0.0035 ± 0.019 | 0.01 ± 0.013 | 0.02 ± 0.021
4H:CD87/uPAR | -0.0325 ± 0.0035 | -0.0345 ± 0.042 | 0.011 ± 0.021 | 0.0135 ± 0.016 | 0.0055 ± 0.019 | -0.0055 ± 0.0021 | -0.0195 ± 0.022 | -0.024 ± 0.086 | -0.0375 ± 0.094 | 0.0155 ± 0.0064 | -0.026 ± 0.028 | 0.001 ± 0.027 | -0.0025 ± 0.011 | 0.0075 ± 0.0092 | -0.0095 ± 0.056 | 0.0235 ± 0.035 | 0.0275 ± 0.067 | -0.0225 ± 0.0092 | 0.0025 ± 0.019 | 0.007 ± 0.034
BF4T:CCL26/Eotaxin-3 | -0.02 ± 0.0099 | -0.069 ± 0.013 | -0.0025 ± 0.035 | -0.0135 ± 0.015 | 0.0045 ± 0.0078 | -0.0755 ± 0.043 | -0.134 ± 0.086 | -0.115 ± 0.012 | -0.122 ± 0.03 | -0.117 ± 0.017 | -0.169 ± 0.014 | -0.026 ± 0.018 | 0.009 ± 0.025 | 0.034 ± 0.021 | 0.028 ± 0.024 | 0.004 ± 0.0028 | 0.0185 ± 0.042 | 0.0125 ± 0.059 | 0.0235 ± 0.005 | 0.049 ± 0.044
BF4T:MMP-1 | -0.01 ± 0.0085 | 0.0055 ± 0.00071 | -0.0105 ± 0.04 | -0.0105 ± 0.054 | 0.0005 ± 0.018 | 0.006 ± 0.0014 | -0.012 ± 0.013 | -0.0215 ± 0.0092 | -0.0125 ± 0.0021 | 0.003 ± 0.016 | 0.0075 ± 0.019 | 0.0005 ± 0.0092 | -0.0045 ± 0.011 | 0.0065 ± 0.018 | -0.0025 ± 0.012 | -0.0015 ± 0.00071 | -0.004 ± 0.013 | 0.002 ± 0.018 | 0.0095 ± 0.018 | 0.012 ± 0.033
